From the CheMixHub viscosity set
± gives the uncertainty stated by the source.

Assay: xn = mol fraction of the nth substance listed

SMILES: CCOc1ccccc1 + CCCCCCCO
- viscosity (293.15 K, 101.3 kPa, x1 = 0.0989): 5.488 ± 0.12 mPa·s
- viscosity (293.15 K, 101.3 kPa, x1 = 0.1998): 4.237 ± 0.097 mPa·s
- viscosity (293.15 K, 101.3 kPa, x1 = 0.2988): 3.317 ± 0.079 mPa·s
- viscosity (293.15 K, 101.3 kPa, x1 = 0.4017): 2.62 ± 0.066 mPa·s
- viscosity (293.15 K, 101.3 kPa, x1 = 0.5011): 2.147 ± 0.056 mPa·s
- viscosity (293.15 K, 101.3 kPa, x1 = 0.6101): 1.814 ± 0.05 mPa·s
- viscosity (293.15 K, 101.3 kPa, x1 = 0.7004): 1.606 ± 0.046 mPa·s
- viscosity (293.15 K, 101.3 kPa, x1 = 0.8009): 1.47 ± 0.043 mPa·s
- viscosity (293.15 K, 101.3 kPa, x1 = 0.9031): 1.388 ± 0.042 mPa·s
- viscosity (298.15 K, 101.3 kPa, x1 = 0.0989): 4.761 ± 0.11 mPa·s
- viscosity (298.15 K, 101.3 kPa, x1 = 0.1998): 3.758 ± 0.087 mPa·s
- viscosity (298.15 K, 101.3 kPa, x1 = 0.2988): 2.978 ± 0.072 mPa·s
- viscosity (298.15 K, 101.3 kPa, x1 = 0.4017): 2.379 ± 0.061 mPa·s
- viscosity (298.15 K, 101.3 kPa, x1 = 0.5011): 1.916 ± 0.052 mPa·s
- viscosity (298.15 K, 101.3 kPa, x1 = 0.6101): 1.583 ± 0.046 mPa·s
- viscosity (298.15 K, 101.3 kPa, x1 = 0.7004): 1.412 ± 0.042 mPa·s
- viscosity (298.15 K, 101.3 kPa, x1 = 0.8009): 1.295 ± 0.04 mPa·s
- viscosity (298.15 K, 101.3 kPa, x1 = 0.9031): 1.252 ± 0.039 mPa·s
- viscosity (308.15 K, 101.3 kPa, x1 = 0.0989): 3.737 ± 0.087 mPa·s
- viscosity (308.15 K, 101.3 kPa, x1 = 0.1998): 2.957 ± 0.072 mPa·s
- viscosity (308.15 K, 101.3 kPa, x1 = 0.2988): 2.382 ± 0.061 mPa·s
- viscosity (308.15 K, 101.3 kPa, x1 = 0.4017): 1.91 ± 0.052 mPa·s
- viscosity (308.15 K, 101.3 kPa, x1 = 0.5011): 1.58 ± 0.046 mPa·s
- viscosity (308.15 K, 101.3 kPa, x1 = 0.6101): 1.318 ± 0.041 mPa·s
- viscosity (308.15 K, 101.3 kPa, x1 = 0.7004): 1.171 ± 0.038 mPa·s
- viscosity (308.15 K, 101.3 kPa, x1 = 0.8009): 1.066 ± 0.036 mPa·s
- viscosity (308.15 K, 101.3 kPa, x1 = 0.9031): 1.001 ± 0.034 mPa·s
- viscosity (318.15 K, 101.3 kPa, x1 = 0.0989): 2.785 ± 0.069 mPa·s
- viscosity (318.15 K, 101.3 kPa, x1 = 0.1998): 2.261 ± 0.059 mPa·s
- viscosity (318.15 K, 101.3 kPa, x1 = 0.2988): 1.846 ± 0.051 mPa·s
- viscosity (318.15 K, 101.3 kPa, x1 = 0.4017): 1.517 ± 0.044 mPa·s
- viscosity (318.15 K, 101.3 kPa, x1 = 0.5011): 1.28 ± 0.04 mPa·s
- viscosity (318.15 K, 101.3 kPa, x1 = 0.6101): 1.083 ± 0.036 mPa·s
- viscosity (318.15 K, 101.3 kPa, x1 = 0.7004): 0.9726 ± 0.034 mPa·s
- viscosity (318.15 K, 101.3 kPa, x1 = 0.8009): 0.8947 ± 0.032 mPa·s
- viscosity (318.15 K, 101.3 kPa, x1 = 0.9031): 0.8422 ± 0.031 mPa·s

SMILES: CCOC(C)=O + CCCCCCO
- viscosity (298.15 K, 101.33 kPa, x1 = 0.1142): 2.832 ± 0.13 mPa·s
- viscosity (298.15 K, 101.33 kPa, x1 = 0.2247): 2.006 ± 0.092 mPa·s
- viscosity (298.15 K, 101.33 kPa, x1 = 0.332): 1.472 ± 0.07 mPa·s
- viscosity (298.15 K, 101.33 kPa, x1 = 0.436): 1.128 ± 0.055 mPa·s
- viscosity (298.15 K, 101.33 kPa, x1 = 0.537): 0.9 ± 0.045 mPa·s
- viscosity (298.15 K, 101.33 kPa, x1 = 0.635): 0.736 ± 0.038 mPa·s
- viscosity (298.15 K, 101.33 kPa, x1 = 0.7301): 0.618 ± 0.033 mPa·s
- viscosity (298.15 K, 101.33 kPa, x1 = 0.8227): 0.539 ± 0.03 mPa·s
- viscosity (298.15 K, 101.33 kPa, x1 = 0.9125): 0.47 ± 0.027 mPa·s
- viscosity (303.15 K, 101.33 kPa, x1 = 0.1142): 2.481 ± 0.11 mPa·s
- viscosity (303.15 K, 101.33 kPa, x1 = 0.2247): 1.775 ± 0.083 mPa·s
- viscosity (303.15 K, 101.33 kPa, x1 = 0.332): 1.334 ± 0.064 mPa·s
- viscosity (303.15 K, 101.33 kPa, x1 = 0.436): 1.027 ± 0.051 mPa·s
- viscosity (303.15 K, 101.33 kPa, x1 = 0.537): 0.824 ± 0.042 mPa·s
- viscosity (303.15 K, 101.33 kPa, x1 = 0.635): 0.692 ± 0.036 mPa·s
- viscosity (303.15 K, 101.33 kPa, x1 = 0.7301): 0.574 ± 0.031 mPa·s
- viscosity (303.15 K, 101.33 kPa, x1 = 0.8227): 0.506 ± 0.028 mPa·s
- viscosity (303.15 K, 101.33 kPa, x1 = 0.9125): 0.448 ± 0.026 mPa·s
- viscosity (308.15 K, 101.33 kPa, x1 = 0.1142): 2.181 ± 0.1 mPa·s
- viscosity (308.15 K, 101.33 kPa, x1 = 0.2247): 1.582 ± 0.074 mPa·s
- viscosity (308.15 K, 101.33 kPa, x1 = 0.332): 1.2 ± 0.058 mPa·s
- viscosity (308.15 K, 101.33 kPa, x1 = 0.436): 0.942 ± 0.047 mPa·s
- viscosity (308.15 K, 101.33 kPa, x1 = 0.537): 0.76 ± 0.039 mPa·s
- viscosity (308.15 K, 101.33 kPa, x1 = 0.635): 0.591 ± 0.032 mPa·s
- viscosity (308.15 K, 101.33 kPa, x1 = 0.7301): 0.541 ± 0.03 mPa·s
- viscosity (308.15 K, 101.33 kPa, x1 = 0.8227): 0.475 ± 0.027 mPa·s
- viscosity (308.15 K, 101.33 kPa, x1 = 0.9125): 0.419 ± 0.024 mPa·s
